One may read the GI50 as the concentration at which growth is held to half of that of the control.

Common to all, as to assay: DTP human tumour cell line panel, 48 h
The test system of assay [1] is NCI/ADR-RES.
Assay [2] deals with SR.
Assay [3] relates to MCF7.
Assay [4] relates to OVCAR-5.
In assay [5] the test system is A549.
Assay [6] concerns PC-3.
The test system of assay [7] is HCC 2998.
Assay [8] has as its system SN12C.
For assay [9], the system named is UACC-257.
For assay [10], the system named is Hs-578T.
For assay [11], the system named is CAKI-1.
Assay [12] relates to MDA-MB-231.
In assay [13] the test system is NCI-H522.
The test system of assay [14] is UACC-62.
For assay [15], the system named is HOP-92.
Assay [16] has as its system DU-145.
Assay [17] concerns SK-MEL-5.
For assay [18], the system named is UO-31.
Assay [19] has as its system MOLT-4.
The subject of assay [20] is HCT-15.

Molecules are shown by their SMILES.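 96-well plates; 48 h exposure; 5 concentrations. Endpoints by linear interpolation between flanking doses. Not reached: highest tested concentration assigned. Here, GI50 denotes the concentration required for 50% inhibition of growth.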 Activity calls are given as the source filed them. Cut-off read from the data, not from the text of the source: active = GI50 up to about 1.1 µM and inactive = higher.

As for `Clc1ccc(/C(=C\c2ccccc2)Cn2ccnc2)cc1`, the GI50 was 14.6 µM (inactive) in assay [1]; 3.46 µM (inactive) in [2]; 16.1 µM (inactive) in assay [3]; 19.8 µM (inactive) in assay [4]; 18 µM (inactive) in assay [5]; 11.5 µM (inactive) in assay [6]. Further, the GI50 in assay [7] is 21.3 µM (inactive); in assay [8] it was 27.4 µM (inactive); in assay [9], 19.3 µM (inactive); in assay [10], > 100 µM (inactive); in [11], 7.21 µM (inactive); in assay [12] it was 11.1 µM (inactive). The GI50 in [13] was 8.15 µM (inactive); in assay [14], 16.7 µM (inactive); in assay [15], 14.8 µM (inactive); in assay [16] it was 20.1 µM (inactive); in assay [17] it was 12.8 µM (inactive); in assay [18], 5.28 µM (inactive). In addition, the figures for the GI50 in assay [19] and in [20] were 21.1 µM (inactive) and 17.8 µM, respectively.
With `S=c1nc(N/N=C/c2cccs2)c2cn[nH]c2[nH]1`, the GI50 in assay [1] is 27.2 µM (inactive); in assay [2], 11.8 µM (inactive); in assay [3] it was 4.23 µM (inactive); in assay [4] it was 17.2 µM (inactive); in [5] it was 0.238 µM (active); in [6] it was 15.1 µM (inactive). The GI50 in [7] is 10.1 µM (inactive); in [8], 32.3 µM (inactive); in [9], 35.7 µM (inactive); in [10] it was > 100 µM (inactive); in assay [11], 14.8 µM (inactive); in [12], 28.1 µM (inactive). The GI50 is 27.3 µM (inactive) in [13]; 25.4 µM (inactive) in [14]; 52.6 µM (inactive) in assay [15]; 34.8 µM (inactive) in [16]; 31.1 µM (inactive) in assay [17]; > 100 µM (inactive) in assay [18]. For the same molecule, the results for the GI50 in assay [19] and in assay [20] were 14 µM (inactive) and 19.5 µM, respectively.
`O=[N+]([O-])c1cccc2nc3ccccc3c(NCCCCCNc3c4ccccc4nc4cccc([N+](=O)[O-])c34)c12`: the concentration for 50% growth inhibition (GI50) in [1] was 0.168 µM (active); in assay [2] it was 0.00271 µM (active); in assay [3] it was 0.0161 µM (active); in assay [4] it was 0.209 µM (active); in assay [5] it was 0.0366 µM (active); in assay [6], 0.102 µM (active). Also, the GI50 was 0.0243 µM (active) in assay [7]; 0.0151 µM (active) in assay [8]; 0.139 µM (active) in assay [9]; 0.0879 µM (active) in assay [10]; 0.0476 µM (active) in [11]; 0.0269 µM (active) in assay [12]. The GI50 in [13] is 0.0859 µM (active); in [14] it was 0.153 µM (active); in [15], 0.0199 µM (active); in assay [16] it was 0.0211 µM (active); in assay [17] it was 0.0895 µM (active); in assay [18], 0.134 µM (active). Besides, the values for the 50% growth inhibitory concentration (GI50) in assay [19] and in [20] were 0.0203 µM (active) and 0.0171 µM, respectively.
Turning to `CCOP(=O)(OCC)/C(=C/NC(=S)c1ccncc1)C(=O)OC`, the GI50 in [1] was > 100 µM (inactive); in assay [2], 4.48 µM (inactive); in assay [3], > 100 µM (inactive); in [4], > 100 µM (inactive); in assay [5], > 100 µM (inactive); in assay [6] it was > 100 µM (inactive). Further, the GI50 in assay [7], in assay [8], in [9], in assay [10], in assay [11] and in assay [12] was > 100 µM (inactive) in each case. Moreover, the GI50 in assay [13], in [14], in [15], in assay [16], in assay [17] and in assay [18] was > 100 µM (inactive) in each case. Besides, the GI50 in assay [19] is > 100 µM (inactive); in [20], above 100 µM.
With `C(=N\NC1=NCCN1)/c1ccc(-c2cn3cc(/C=N/NC4=NCCN4)ccc3n2)cc1`, the GI50 in assay [1] is > 66.2 µM (inactive); in assay [2], 3.33 µM (inactive); in [3] it was 2.2 µM (inactive); in [4] it was 64.3 µM (inactive); in [5], 10.2 µM (inactive); in [6], 22.9 µM (inactive). For the same molecule, the GI50 was > 47.2 µM (inactive) in assay [7]; > 36.9 µM (inactive) in assay [8]; 30.3 µM (inactive) in assay [9]; > 87.3 µM (inactive) in assay [10]; 22 µM (inactive) in [11]; 14.6 µM (inactive) in [12]. Besides, the GI50 in [13] was 10.9 µM (inactive); in assay [14], 40.6 µM (inactive); in assay [15], 18.8 µM (inactive); in assay [16] it was 16.6 µM (inactive); in assay [17], > 100 µM (inactive); in assay [18], 46 µM (inactive). Moreover, the GI50 in assay [19] is 5.35 µM (inactive); in assay [20], above 68.4 µM.
On to `O=C1/C(=C/c2ccc(Cl)cc2)CCC1CNc1ccc(Cl)cc1` (stereo not given), for which the GI50 in assay [1] is 26.2 µM (inactive); in [2], 2.23 µM (inactive); in assay [3], 1.29 µM (inactive); in [4] it was 25.2 µM (inactive); in assay [5], 7.8 µM (inactive); in [6] it was 10.5 µM (inactive). Also, the GI50 in assay [7] is 6.01 µM (inactive); in assay [8], 10.2 µM (inactive); in assay [9], 13.8 µM (inactive); in assay [10], 16.1 µM (inactive); in assay [11], 7.55 µM (inactive); in assay [12], 6.7 µM (inactive). Further, the GI50 in assay [13] was 1.8 µM (inactive); in assay [14], 0.41 µM (active); in assay [15], 19.3 µM (inactive); in assay [16], 13.5 µM (inactive); in assay [17] it was 3.33 µM (inactive); in [18] it was 5.35 µM (inactive). The GI50 in assay [19] was 2.29 µM (inactive); in assay [20], 2.37 µM.
With `CC(=O)Oc1ccc(/C=C/C(=O)O[C@H]2CCCC[C@@H]2OC(=O)/C=C/c2ccc(OC(C)=O)c(OC(C)=O)c2)cc1OC(C)=O`, the GI50 in [1] was 19.2 µM (inactive); in assay [2], 4.34 µM (inactive); in assay [3], 13.8 µM (inactive); in [4], 12.3 µM (inactive); in [5], 6.87 µM (inactive); in [6] it was 8.28 µM (inactive). Moreover, the GI50 was 13.8 µM (inactive) in assay [7]; 9.23 µM (inactive) in [8]; 11.8 µM (inactive) in assay [9]; 6.21 µM (inactive) in assay [10]; 5.41 µM (inactive) in assay [11]; 17 µM (inactive) in assay [12]. Moreover, the GI50 in assay [13] is 2.81 µM (inactive); in [14], 4.84 µM (inactive); in [15], 4.62 µM (inactive); in assay [16], 13.3 µM (inactive); in assay [17], 4.69 µM (inactive); in [18] it was 3.54 µM (inactive). The GI50 in assay [19] was 2.64 µM (inactive); in assay [20], 5.13 µM.

These data come from ChEMBL document CHEMBL1201862, “PubChem BioAssay data set” (2004).
